# Test results reported in US11123335B2, “Method for preventing lung diseases in smokers and non-smokers using antihypertensive drug” (SEOUL NATIONAL UNIVERSITY R & DB FOUNDATION, priority 2015, dated 2021).
# Experiments:
# IGF-1R = assay: NE-mediated IGF-1R activation in lung epithelial cells; type: cell-based, human
# Experimental: Cells were washed twice with ice-cold PBS, and then lysed with a modified RIPA buffer [50 mM Tris-HCl (pH 7.4), 150 mM NaCl, 1 mM EDTA, 0.25% sodium deoxycholate, 1% Triton X-100, a protease inhibitor cocktail, 100 mM NaF, 1 mM Na3VO4]. Lysates were centrifuged at 13,000 rpm for 15 to 20 minutes to harvest supernatants, and then the collected proteins were quantified using the BCA method. Equivalent amounts of the proteins were subjected to electrophoresis using 8-15% SDS-PAGE, and then transferred to a PVDF membrane. The membrane was washed with TBST (0.01% Tween-20-containing Tris-buffered saline), and blocked in a blocking buffer (diluted in TBST to contain 5% skim milk) at room temperature for 1 hour. The membrane was incubated with primary antibodies diluted in 3% BSA-containing TBST at 4° C. for 12 hours, and washed with TBST for over 1 hour. The membrane was incubated with secondary antibodies diluted in TBST containing 3% skim milk at room temperature for 1 to 2 hours, and washed with TBST for over 1 hour. The membrane was reacted in an ECL solution, and band visualization was carried out by exposure to an X-ray film.
# IGF2 = assay: NE-mediated IGF2 secretion in lung epithelial cells; type: cell-based, human
# Experimental: ELISA for IGF1, IGF2 and NE were performed using commercially available ELISA kits (R&D Systems, DSL or Abnova) according to the manufacturer's instruction.
# FVB mouse = assay: Emphysema-induced mouse model (NNK/B[a]P); type: in vivo; details: FVB mice, amlodipine 0.8 mg/kg oral 6 times a week, 5 months
# Experimental: Cells were plated onto coverslips, pretreated with a drug and then treated with NNK or NE. OCT blocks were sliced to have a thickness of 4 μm and then placed onto silane-coated slides. Cells or tissue was washed with PBS, and fixed with 4% paraformaldehyde at room temperature for 30 minutes. Afterward, the cells were permeabilized with 0.1% Triton X-100, and blocked in a blocking solution. After treatment with primary antibodies at 4° C. for over 12 hours, the cells were washed with PBS several times, and then treated with fluorescence-binding secondary antibodies. Subsequently, after washing with PBS several times, the slides were mounted with a DAPI-containing mounting solution, and images were captured using a confocal microscope.
# Paraffin blocks were sliced to have a thickness of 4 μm, placed onto silane-coated slides, and then dried. […]
# As a method for detecting the activation degree of a protease, a matrix metalloproteinase (MMP), known as the main factor causing COPD in lung tissue, a proper amount of a reaction buffer containing fluorescein isothiocyanate (FITC)-coupled DQ gelatin was added to a slide, and reacted at 37° C. in a dark room for 12 hours. The activated MMP decomposed the DQ gelatin, resulting in fluorescence from FITC which had been inhibited, and thus the fluorescence intensity of FITC was directly proportional to MMP activity. […]
# mice = assay: NE (stress hormone) lung carcinogenesis model with urethane; type: in vivo, mouse; details: continuous NE exposure by micro-osmotic pump, 12 weeks, urethane 1 g/kg
# Experimental: To identify the carcinogenesis promotion by a stress hormone NE, NE (50.1 mM) or vehicle PBS was injected into micro-osmotic pumps (Alzet), and then the pumps were implanted into the backs of mice. Six weeks later, the existing pumps were removed, NE or PBS-injected new pumps were implanted into the mice, and then the mice were continuously exposed (daily exposure at a dose of 1 μmol per 100 g mouse) to NE for a total of 12 weeks. To stimulate tumorigenesis, three days after the pump implantation, urethane was administered at a dose of 1 g/kg.
# For non-invasive observation of tumors before autopsy, MMPSense 680 probes were injected, and images were obtained using IVIS Spectrum microCT (PerkinElmer). After autopsy of the mice, lungs were extracted, and produced tumors were counted and embedded in paraffin to form paraffin blocks. Four or more tissue sections were prepared at regular intervals and stained by H&E staining, and then numbers and sizes of the tumors were measured to calculate volumes of the tumors. The tumor volume was calculated according to (minor axis)^2×major axis×0.5.
# lung epithelial cells = assay: Transformation of lung epithelial cells by stress hormones; type: cell-based, human; details: treatment with the stress hormone alone
# Experimental: Cells (2-3×10^3 cells) were seeded into 96-well plates, treated with a test drug diluted with a medium, and then incubated for 3 days. After incubation, the cells were treated with an MTT solution to have a final concentration of 200-500 μg/ml and incubated for 2 to 4 hours. After discarding the medium, produced formazan was dissolved in DMSO, and then the absorbance at 570 nm was measured. Alternatively, cells were seeded into 12- or 24-well plates, collected after a predetermined time after treatment with a test drug, and then counted using a hemocytometer. 100 to 300 cells were seeded into 6- or 12-well plates and then treated with NNK or NNK and a test drug for 2 to 3 weeks. After 2 to 3 weeks, Colony formation was observed and the colonies were counted after stained staining with crystal violet. Before the experiment, low-melting agar (final concentration of agar: 1%) was diluted with a medium, and then 1 ml of the resulting solution was added and solidified in each 24-well plate, resulting in bottom agar. 2,000 to 5,000 cells were mixed with the low melting agar (final concentration of agar: 0.35-0.4%), 500 μl of the resulting mixture was added onto each bottom agar. After solidification of the agar, the cells were treated with NNK or a test drug, which was diluted with a medium. After 2 to 4 weeks after treatment, colonies were stained with an MTT solution, observed, and then counted. Lung epithelial cells at 90 to 95% confluency were treated with a carcinogen diluted with a growth factor-free medium, or a carcinogen and a test drug. After 2 to 3 weeks, foci formation was observed.
# [1] = NE-treated lung epithelial cells
Molecule,NE-mediated IGF-1R activation (IGF-1R; [1]),NE-mediated IGF2 secretion (IGF2; [1]),"lung tissue collapse (morphology, H&E) (FVB mouse)","IGF-1R phosphorylation (IGF-1R; BEAS-2B, HBE/p53i, NHBE, HB56B, NE time- or concentration-dependent)",IGF2 secretion (IGF2; lung epithelial cells treated with NE),urethane-initiated lung carcinogenesis (mice),"transformation of lung epithelial cells (viability, colony formation, foci formation) (lung epithelial cells)"
amlodipine,inhibited,inhibited,inhibited,,,,
"NC[C@H](O)c1ccc(O)c(O)c1 [NE, norepinephrine]",,,,increased,increased,significantly increased,significantly enhanced
